From US9464064B2, “HCV helicase inhibitors and methods of use thereof” (University of Kansas, priority 2011, dated 2016)
Starred links: 1 amine or outer side, 2 acyl side, 3 side chain; linkers in the order of their positions; H or OH if unused. Positions of bridges follow the written chain, without caps; N, C: chain ends. Non-standard residues stand in square brackets, D forms with d. Residues, ends and D or L forms follow the SMILES beside them. Chains are numbered I, II in the order given. Actinocin(9to1) = Cc1c2oc3c(C)ccc(C(=O)[*:1])c3nc-2c(C(=O)[*:2])c(N)c1=O; NMeV = CN[C@H](C(=O)O)C(C)C; Sar = CNCC(=O)O

Biological target: T1, HCV NS3 helicase NS3h_1b(con1) (Hepatitis C virus genotype 1b, UniProt Q9WMX2)
T1 construct: truncated C-terminally His-tagged NS3 proteins lacking the N-terminal protease, called NS3h; His-tag (C); made in house
Test: MBHA screen of NCI mechanistic set library at 20 μM (percent inhibition, compound interference)
Type: biochemical
Settings: compounds at 20 μM; for Inh. (%) (Inhibition): calculated from Equation 1
Protocol: All molecular beacon-based helicase assays (MBHAs) were performed according to known methods (Belon & Frick (2008) supra; Belon & Frick (2009) supra). […] In each flat, black 384-well plate, 56 compounds were tested, in triplicate, along with three negative controls (DMSO only), three positive controls (500 nM dT20), and two wells with no enzyme. Fluorescence was read before ATP (F0) addition and 30 minutes after ATP was added to 1 mM (F30) using a Tecan Infinite M200 fluorescence microplate reader with excitation and emission wavelengths set to 643 and 670 nm, respectively. Percent inhibition was calculated with equation 1, and compound interference in the MBHA was calculated with equation 2.
In Equations 1 and 2, Fc0 is the fluorescence of the reactions containing the test compound before adding ATP, Fc30 is the fluorescence of the test compound reaction 30 minutes after adding ATP. F(−)0 is the average of three DMSO-only negative control reactions before adding ATP and F(−)30 is the average of three DMSO-only reactions 30 minutes after adding ATP.
To identify HCV helicase inhibitors, the MBHA was first used to screen the National Cancer Institute Developmental Therapeutics Program's mechanistic set library. In total, 827 compounds (at 20 μM) were screened using a MBHA with a DNA substrate (Table 1). Compounds were ranked by their ability to inhibit HCV helicase-catalyzed DNA unwinding as calculated from Equation 1.
Compound interference in the MBHA was evaluated by comparing the fluorescence of reactions containing each compound to the fluorescence of DMSO-only negative controls before ATP was added.

[1] = MBHA with DNA substrate, assay interference calculated with Equation 2
[2] = assay interference calculated with Equation 2 (fluorescence vs DMSO-only controls before ATP)

T1 sequence (Q9WMX2 1192-1657): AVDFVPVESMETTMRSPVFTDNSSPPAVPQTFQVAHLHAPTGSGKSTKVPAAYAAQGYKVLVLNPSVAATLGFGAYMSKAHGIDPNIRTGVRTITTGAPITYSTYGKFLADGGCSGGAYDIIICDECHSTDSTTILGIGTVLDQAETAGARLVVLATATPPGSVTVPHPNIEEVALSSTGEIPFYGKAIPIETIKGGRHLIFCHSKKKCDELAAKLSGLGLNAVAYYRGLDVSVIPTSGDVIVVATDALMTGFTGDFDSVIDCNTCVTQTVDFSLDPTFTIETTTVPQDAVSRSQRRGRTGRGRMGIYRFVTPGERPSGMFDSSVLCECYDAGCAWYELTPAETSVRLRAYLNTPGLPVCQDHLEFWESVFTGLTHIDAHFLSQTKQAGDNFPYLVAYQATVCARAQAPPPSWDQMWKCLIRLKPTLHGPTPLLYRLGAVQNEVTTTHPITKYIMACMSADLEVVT

Row | Int.* (Ratio) (Interference) [1] | Inh. (%) (Inhibition) (MBHA with DNA substrate) | Inh. (%) (Inhibition) (MBHA with a DNA substrate) | Int.* (Ratio) (Interference) [2] | Compound
1 | 1.07 Ratio | 5.9% | – | – | Nc1nncs1 [Compound 4728]
2 | – | – | 10.6% | 0.88 Ratio | CCN(CC)CCCC(C)Nc1ccnc(/C=C/c2ccc(Cl)cc2)c1 (stereo not drawn) [Compound 157389]
3 | 1.08 Ratio | 27.1% | – | – | Cc1c2ccc3ccccc3c2c[n+]2ccccc12.[Cl-] [Compound 28002]
4 | 0.98 Ratio | 5.8% | – | – | COc1ccc(CCN(C)CCCC(C#N)(c2ccc(OC)c(OC)c2)C(C)C)cc1OC.Cl (stereo not drawn) [Compound 657799]
5 | 1.01 Ratio | −11.0% | – | – | N#CCCN(c1ccc(C=O)cc1)S(=O)(=O)c1ccccc1 [Compound 637914]
6 | 0.90 Ratio | −1.0% | – | – | CO[C@H]1C[C@@H]2CC[C@@H](C)[C@@](O)(O2)C(=O)C(=O)N2CCCC[C@H]2C(=O)O[C@H]([C@H](C)C[C@@H]2CC[C@@H](O)[C@H](OC)C2)CC(=O)[C@H](C)/C=C(\C)[C@@H](O)[C@@H](OC)C(=O)[C@H](C)C[C@H](C)/C=C/C=C/C=C/1C [Compound 226080]
7 | – | – | −40.6% | 1.02 Ratio | Cc1cc(=O)[nH]c(NN2C(Cl)C(=O)C2c2c(O)ccc3ccccc23)n1 (stereo not drawn) [Compound 653016]
8 | 0.92 Ratio | −10.9% | – | – | Cc1cc(Cl)ccc1N1C(=O)C(=O)C(c2nc3ccccc3o2)C(=O)C1=O [Compound 623051]
9 | – | – | −5.9% | 1.16 Ratio | CC(C)(C)C1CCC2(CC1)CCN(CCCN1CCOCC1)CC2 [Compound 90829]
10 | 0.96 Ratio | 6.7% | – | – | CCN(CC)CCOC(=O)Cc1cccc2c(=O)cc(-c3ccccc3)oc12 [Compound 293015]
11 | 0.90 Ratio | 1.1% | – | – | CCCC(=O)[O-].[Na+] [Compound 174280]
12 | 0.98 Ratio | 3.4% | – | – | Nc1nc(SCc2ccccc2Cl)c2[nH]cnc2n1 [Compound 36826]
13 | 0.97 Ratio | −1.8% | – | – | NC1N=C(c2ccc(Cl)cc2)C2=C(N1)c1ccccc1CC2 (stereo not drawn) [Compound 682864]
14 | 0.38 Ratio | 45.1% | – | – | CN(C)c1ccc(C=c2c3ccccc3n3c2cc(-c2ccc(Cl)cc2)[n+]3C)cc1.O=S(=O)([O-])C(F)(F)F [Compound 699479]
15 | 0.93 Ratio | −11.6% | – | – | CC(C)C1=CC2=CC[C@@H]3[C@](C)(CCC[C@@]3(C)C(=O)O)[C@H]2CC1 [Compound 25149]
16 | – | – | −6.8% | 0.96 Ratio | O=C(c1ccccc1)C1OC12C(=O)Nc1c(Cl)cc(Cl)cc12 (stereo not drawn) [Compound 635306]
17 | 0.99 Ratio | 28.1% | – | – | CC(C)(C)NCCC(O)c1cc(C(F)(F)F)nc2c(C(F)(F)F)cccc12.O=P(O)(O)O (stereo not drawn) [Compound 305819]
18 | – | – | 9.9% | 0.87 Ratio | O=C(NC(=O)c1c(Cl)nc2sccn12)Nc1ccc(Cl)cc1 [Compound 633209]
19 | – | – | −2.9% | 1.08 Ratio | O=NN(CCCl)C(=O)NCc1ccc[n+]([O-])c1 [Compound 307454]
20 | 0.22 Ratio | 26.2% | – | – | C[n+]1c(-c2ccc(/C=C/C=N/NC(=O)c3ccc(C(=O)N/N=C/C=C/c4ccc(-c5cn6ccccc6[n+]5C)cc4)cc3)cc2)cn2ccccc21.Cc1ccc(S(=O)(=O)O)cc1 [Compound 603169]

Row | Int.* (Ratio) (Interference) [1] | Inh. (%) (Inhibition) (MBHA with DNA substrate) | Inh. (%) (Inhibition) (MBHA with a DNA substrate) | Int.* (Ratio) (Interference) [2] | Compound
21 | – | – | −24.0% | 1.04 Ratio | CCNC(=O)OCc1c(COC(=O)NCC)c(-c2ccc(Cl)c(Cl)c2)n2c1CCC2 [Compound 267700]
22 | – | – | 10.4% | 0.94 Ratio | Cc1ccc(NC(=O)c2cccc([N+](=O)[O-])c2O)c([N+](=O)[O-])c1 [Compound 82025]
23 | 0.98 Ratio | −16.0% | – | – | Cc1nnc(-n2c(O)cc(=O)n(-c3ccccc3)c2=S)nc1/C=C/c1ccc(N(C)C)cc1 [Compound 698031]
24 | 0.93 Ratio | 0.8% | – | – | C/C(=N\NC(=S)N(C)C)c1ccccn1.[Cu][Br] [Compound 635448]
25 | – | – | −31.4% | 1.11 Ratio | BrCCC[P+](c1ccccc1)(c1ccccc1)c1ccccc1.[Br-] [Compound 84074]
26 | – | – | −28.8% | 1.17 Ratio | Cc1ccc(CC2(OCCN(C)C)CCC(C(C)(C)C)CC2)cc1.O=C(O)/C=C/C(=O)O (stereo not drawn) [Compound 670229]
27 | 1.00 Ratio | −9.8% | – | – | NC1CCCCC1N.[Cl-].[Cl-].[Pt+2] (stereo not drawn) [Compound 265459]
28 | 1.10 Ratio | 1.5% | – | – | O=c1oc2cc(O)ccc2c2oc3cc(O)ccc3c12 [Compound 22842]
29 | – | – | −19.4% | 0.96 Ratio | COc1ccc(/C=C\c2cc(OC)c(OC)c(OC)c2)cc1OP(=O)(O)O.N [Compound 643001]
30 | – | – | −24.2% | 0.91 Ratio | Cc1nc(Nc2ccc(Cl)c(Cl)c2)sc1C(/C=C/c1ccc2c(c1)OCO2)=N/Nc1ccc([N+](=O)[O-])cc1[N+](=O)[O-] [Compound 640335]
31 | – | – | 9.9% | 0.98 Ratio | CC[C@]1(O)C[C@@H]2CN(CCc3c([nH]c4ccccc34)[C@@](C(=O)OC)(c3cc4c(cc3OC)N(C)[C@H]3[C@@](O)(C(=O)OC)[C@H](OC(C)=O)[C@]5(CC)C=CCN6CC[C@]43[C@@H]65)C2)C1.O=S(=O)(O)O [Compound 49842]
32 | 0.96 Ratio | −9.0% | – | – | COc1ccc2cc1Oc1ccc(cc1)CC1c3cc(c(OC)cc3CCN1C)Oc1c(OC)c(OC)cc3c1C(C2)N(C)CC3 (stereo not drawn) [Compound 97338]
33 | 0.91 Ratio | 38.9% | – | – | COc1cc(O)c2c(c1)C(=O)c1cc3c(c(O)c1C2=O)C(OC1OC(C)C(O)C(O)C1OC)C(OC)C(C)(O)C3=O (stereo not drawn) [Compound 93419]
34 | 0.93 Ratio | 0.3% | – | – | Clc1ccc(C(c2ccccc2Cl)C(Cl)Cl)cc1 (stereo not drawn) [Compound 38721]
35 | 0.90 Ratio | 19.4% | – | – | O=c1c(O)c(-c2ccc(O)c(O)c2)oc2cc(O)ccc12 [Compound 407010]
36 | 0.66 Ratio | 61.5% | – | – | CCN(CC)c1ccc2cc3ccc(=[N+](CC)CC)cc-3oc2c1.[Cl-] [Compound 44690]
37 | 0.64 Ratio | 46.4% | – | – | COc1cccc2c1C(=O)c1c(O)c3c(c(O)c1C2=O)C[C@@](O)(C(C)=O)C[C@@H]3OC1CC(N(C)C)C(O)C(C)O1.Cl (stereo partly drawn) [Compound 258812]
38 | – | – | 7.0% | 0.93 Ratio | COc1nc(C(Cl)(Cl)Cl)c(Cl)c(OC)c1Cl [Compound 338720]
39 | 0.89 Ratio | 15.9% | – | – | CC(=O)Nc1ccc(-c2nc3ccccc3s2)cc1 [Compound 33006]
40 | – | – | −26.6% | 1.11 Ratio | Oc1ccc(/C=N/NC(=S)Nc2cccnc2)nc1 [Compound 185065]

Row | Compound | Int.* (Ratio) (Interference) [1] | Inh. (%) (Inhibition) (MBHA with DNA substrate) | Inh. (%) (Inhibition) (MBHA with a DNA substrate) | Int.* (Ratio) (Interference) [2]
41 | COc1cc([C@@H]2c3cc4c(c(O)c3C[C@H]3COC(=O)[C@@H]32)OCO4)cc(OC)c1OC [Compound 24819] | 1.12 Ratio | −0.3% | – | –
42 | CC(=O)[O][Pb]([O]C(C)=O)([c]1ccccc1)[c]1ccccc1 [Compound 173046] | 0.93 Ratio | −12.2% | – | –
43 | CCC(=O)OC1CCn2c1nc1c2C(=O)C(C)=C(N2CC2)C1=O (stereo not drawn) [Compound 651079] | 1.05 Ratio | −16.7% | – | –
44 | Cc1c2oc3c(C)ccc(C(=O)N[C@@H]4C(=O)N[C@H](C(C)C)C(=O)N5CCC[C@H]5C(=O)N(C)CC(=O)N(C)[C@@H](C(C)C)C(=O)O[C@@H]4C)c3nc-2c(C(=O)N[C@@H]2C(=O)N[C@H](C(C)C)C(=O)N3CCC[C@H]3C(=O)N(C)CC(=O)N(C)[C@@H](C(C)C)C(=O)O[C@@H]2C)c(N)c1=O [Compound 3053] (I: T[dV]P[Sar][NMeV] / II: T[dV]P[Sar][NMeV]; ester I:1-I:C, II:1-II:C; linker I:N-II:N via Actinocin(9to1)) | 0.55 Ratio | 67.5% | – | –
45 | O=[Se]([O-])[O-].[Na+].[Na+] [Compound 347466] | 0.89 Ratio | 27.4% | – | –
